Reference: publication PMC9574050, “Design, synthesis, and insecticidal activity of a novel series of flupyrimin analogs bearing 1-aryl-1H-pyrazol-4-yl subunits” (Frontiers in Chemistry, 2022)

Assays:
Assay type in all cases: in vivo
[1] = system: Nilaparvata lugens; test: Insecticidal activity against Nilaparvata lugens (Potter spray tower); conditions: 24 h, 3rd instar nymphae, 1 day after treatment, read-out: Mortality rate (%) N. lugens; for mortality at 400 µg/mL: 400 μg/mL
From the text: (§1) Preparation of test agent. Dissolve accurately weighed tested compound in DMF to prepare 1% mother liquor, and then dilute it with distilled water containing 0.1% Tween-80 to corresponding concentrations for later use.
Insecticidal activity against Nilaparvata lugens ([Ghareeb et al., 2021]). The seedlings with two leaves and one heart were placed in a Petri dish with a bottom diameter of 3 cm and covered with white sand. After the 3rd instar nymphae of N. lugens were stunned by CO2, about 15 nymphae were received in each dish, and then 2.5 ml of the tested agent was sprayed with Potter spray tower. The mortality of N. lugens was investigated 1 day after the treatment. Each treatment was repeated three times, and DMF without the tested compound was used as a blank control.
(§2) The insecticidal activities of the test compounds against the abovementioned five insects were calculated by the following formula: P1=(K/N)×100, (1) P2=(Pt−P0)/(1−P0)×100, (2) where P1 is the mortality rate; K is the dead insect number; N is the total number of experimental insects; P2 is the corrected mortality rate; Pt is the mortality rate of treatment; P0 is the mortality rate of CK. If the mortality rate of CK is less than 5%, without the required correction, and if the mortality rate of CK is between 5 and 20%, P2 should be calculated according to formula II.

[2] = system: Plutella xylostella; test: Insecticidal activity against Plutella xylostella (soaking method); conditions: Plutella xylostella, 48 h, 2nd instar larvae, counted 2 days later, read-out: Mortality rate (%) P. xylostella; for mortality at 25 µg/mL: 25 μg/mL; for mortality at 100 µg/mL: 100 μg/mL; for mortality at 400 µg/mL: 400 μg/mL
From the text: as §1
Insecticidal activity against Plutella xylostella ([Yang et al., 2021]). The soaking method was adopted. After soaking a proper amount of radish leaves for 10 s, it was placed in a plastic Petri dish with filter paper and dried naturally in the shade. Each dish was inoculated with 10 2nd instar P. xylostella larvae and placed in an observation room at 22°C with light (16/8 h). The result was counted 2 days later, and the no-response insect body when it was lightly touched with a brush was regarded as dead. Each treatment was repeated three times, and DMF without the tested compound was used as a blank control.
as §2

[3] = system: Chilo suppressalis; test: Insecticidal activity against Chilo suppressalis (soaking method); conditions: 96 h, 400 μg/mL, 3rd instar larvae, counted 4 days later, read-out: Mortality rate (%) C. suppressalis
From the text: as §1
Insecticidal activity against Chilo suppressalis ([Huang et al., 2022]). The soaking method was adopted. The Zizania latifolia slices were soaked in a tested solution for 10 s, then taken out, and placed in a plastic Petri dish with filter paper to naturally dry in the shade. […] The result was counted 4 days later, and the no-response insect body when it was lightly touched with a brush was regarded as dead. Each treatment was repeated three times, and DMF without the tested compound was used as a blank control.
as §2

[4] = system: Helicoverpa armigera; test: Insecticidal activity against Helicoverpa armigera (soaking method); conditions: Helicoverpa armigera, 48 h; 400 μg/mL; 2nd instar larvae; counted 2 days later; read-out: Mortality rate (%) H. armigera
From the text: as §1
Insecticidal activity against Helicoverpa armigera. The soaking method was adopted ([Yang et al., 2022]). After soaking a proper amount of corn leaves for 10 s, they were placed in a plastic Petri dish with filter paper and dried naturally in the shade. Ten larvae of the 2nd instar H. armigera were attached to each dish and placed in an observation room at 26°C with light (16/8 h). The result was counted 2 days later, and the no-response insect body when it was lightly touched with a brush was regarded as dead. Each treatment was repeated 3 times, and DMF without the tested compound was used as a blank control.
as §2

[5] = system: Aphis craccivora; test: Insecticidal activity against Aphis craccivora (Potter spray tower); conditions: 400 μg/mL, counted 24 h later, read-out: Mortality rate (%) A. craccivora
Protocol: as §1
Insecticidal activity against Aphis craccivora ([Liu et al., 2022]). About 30 nymphs of alfalfa aphid were placed on a horsebean leaf dish, and then 2.5 ml of the tested agent was sprayed with Potter spray tower. After treatment, they were cultured in an observation room at 20–22°C. The result was counted 24 h later, and the no-response insect body when it was lightly touched with tweezers was regarded as dead. Each treatment was repeated three times, and DMF without the tested compound was used as a blank control.
as §2

SMILES | mortality at 400 µg/mL [1] [%] | mortality at 25 µg/mL [2] [%] | mortality at 100 µg/mL [2] [%] | mortality at 400 µg/mL [2] [%] | mortality at 400 µg/mL [3] [%] | mortality at 400 µg/mL [4] [%] | mortality at 400 µg/mL [5] [%] | mortality at 100 µg/mL ([1]; 100 μg/mL) [%]
COCC(=O)/N=c1\ccccn1Cc1cnn(-c2cccc(Cl)c2)c1C(F)F [Compound B6, (E)-N-(1-((1-(3-chlorophenyl)-5-(difluoromethyl)-1H-pyrazol-4-yl)methyl)pyridin-2(1H)-ylidene)-2-methoxyacetamide] | 0 | 0 | 83.3 | 100 | 0 | 0 | 0 | –
COCC(=O)/N=c1\ccccn1Cc1cnn(-c2cccc(F)c2)c1C(F)F [Compound B7, (E)-N-(1-((5-(difluoromethyl)-1-(3-fluorophenyl)-1H-pyrazol-4-yl)methyl)pyridin-2(1H)-ylidene)-2-methoxyacetamide] | 0 | – | – | 66.7 | 0 | 0 | 0 | –
COCC(=O)/N=c1\ccccn1Cc1cnn(-c2ccc(F)cc2)c1C(F)F [Compound B8, (E)-N-(1-((5-(difluoromethyl)-1-(4-fluorophenyl)-1H-pyrazol-4-yl)methyl)pyridin-2(1H)-ylidene)-2-methoxyacetamide] | 0 | – | – | 56.7 | 0 | 0 | 0 | –
O=C(/N=c1\ccccn1Cc1cnn(-c2ccccc2)c1C(F)(F)F)C(F)(F)C(F)(F)F [Compound C1, (E)-2,2,3,3,3-pentafluoro-N-(1-((1-phenyl-5-(trifluoromethyl)-1H-pyrazol-4-yl)methyl)pyridin-2(1H)-ylidene)propanamide] | 0 | – | – | 0 | 0 | 0 | 0 | –
O=C(/N=c1\ccccn1Cc1cnn(-c2ccccc2Cl)c1C(F)(F)F)C(F)(F)C(F)(F)F [Compound C2, (E)-N-(1-((1-(2-chlorophenyl)-5-(trifluoromethyl)-1H-pyrazol-4-yl)methyl)pyridin-2(1H)-ylidene)-2,2,3,3,3-pentafluoropropanamide] | 0 | – | – | 0 | 0 | 0 | 0 | –
O=C(/N=c1\ccccn1Cc1cnn(-c2cccc(F)c2)c1C(F)(F)F)C(F)(F)C(F)(F)F [Compound C3, (E)-2,2,3,3,3-pentafluoro-N-(1-((1-(3-fluorophenyl)-5-(trifluoromethyl)-1H-pyrazol-4-yl)methyl)pyridin-2(1H)-ylidene)propanamide] | 0 | – | – | 76.7 | 0 | 0 | 0 | –
O=C(/N=c1\ccccn1Cc1cnn(-c2ccc(Cl)cc2)c1C(F)(F)F)C(F)(F)C(F)(F)F [Compound C4, (E)-N-(1-((1-(4-chlorophenyl)-5-(trifluoromethyl)-1H-pyrazol-4-yl)methyl)pyridin-2(1H)-ylidene)-2,2,3,3,3-pentafluoropropanamide] | 0 | – | – | 73.3 | 0 | 0 | 0 | –
O=C(/N=c1\ccccn1Cc1cnn(-c2cccc(Cl)c2)c1C(F)F)C(F)(F)C(F)(F)F [Compound C6, (E)-N-(1-((1-(3-chlorophenyl)-5-(difluoromethyl)-1H-pyrazol-4-yl)methyl)pyridin-2(1H)-ylidene)-2,2,3,3,3-pentafluoropropanamide] | 0 | – | – | 60 | 0 | 0 | 0 | –
O=C(/N=c1\ccccn1Cc1cnn(-c2cccc(F)c2)c1C(F)F)C(F)(F)C(F)(F)F [Compound C7, (E)-N-(1-((5-(difluoromethyl)-1-(3-fluorophenyl)-1H-pyrazol-4-yl)methyl)pyridin-2(1H)-ylidene)-2,2,3,3,3-pentafluoropropanamide] | 0 | – | – | 66.7 | 40 | 0 | 0 | –
Cn1cc(C(=O)/N=c2\ccccn2Cc2cnn(-c3ccccc3)c2C(F)(F)F)c(C(F)F)n1 [Compound D1, (E)-3-(difluoromethyl)-1-methyl-N-(1-((1-phenyl-5-(trifluoromethyl)-1H-pyrazol-4-yl)methyl)pyridin-2(1H)-ylidene)-1H-pyrazole-4-carboxamide] | 0 | – | – | 46.7 | 0 | 0 | 0 | –
Cn1cc(C(=O)/N=c2\ccccn2Cc2cnn(-c3ccccc3Cl)c2C(F)(F)F)c(C(F)F)n1 [Compound D2, (E)-N-(1-((1-(2-chlorophenyl)-5-(trifluoromethyl)-1H-pyrazol-4-yl)methyl)pyridin-2(1H)-ylidene)-3-(difluoromethyl)-1-methyl-1H-pyrazole-4-carboxamide] | 0 | – | – | 43.3 | 0 | 0 | 0 | –
Cn1cc(C(=O)/N=c2\ccccn2Cc2cnn(-c3cccc(F)c3)c2C(F)(F)F)c(C(F)F)n1 [Compound D3, (E)-3-(difluoromethyl)-N-(1-((1-(3-fluorophenyl)-5-(trifluoromethyl)-1H-pyrazol-4-yl)methyl)pyridin-2(1H)-ylidene)-1-methyl-1H-pyrazole-4-carboxamide] | 100 | – | – | 63.3 | 0 | 0 | 0 | 0
Cn1cc(C(=O)/N=c2\ccccn2Cc2cnn(-c3ccc(Cl)cc3)c2C(F)(F)F)c(C(F)F)n1 [Compound D4, (E)-N-(1-((1-(4-chlorophenyl)-5-(trifluoromethyl)-1H-pyrazol-4-yl)methyl)pyridin-2(1H)-ylidene)-3-(difluoromethyl)-1-methyl-1H-pyrazole-4-carboxamide] | 0 | 6.7 | 60 | 100 | 0 | 0 | 0 | –
Cn1cc(C(=O)/N=c2\ccccn2Cc2cnn(-c3ccc(C(F)(F)F)cc3)c2C(F)(F)F)c(C(F)F)n1 [Compound D5, (E)-3-(difluoromethyl)-1-methyl-N-(1-((5-(trifluoromethyl)-1-(4-(trifluoromethyl)phenyl)-1H-pyrazol-4-yl)methyl)pyridin-2(1H)-ylidene)-1H-pyrazole-4-carboxamide] | 0 | – | – | 63.3 | 0 | 0 | 0 | –
